Results: patent publication US20250281672A1, “IDENTIFICATION OF PRO- AND ANTI-INFLAMMATORY LIPIDS RELATING TO IMMUNE RESPONSE TO MEDICAL IMPLANTS” (William Marsh Rice University, priority 2021, published 2025)

Experiments:
brain of mice = assay: 2-week PDMS pillar implantation in mouse brain; histology and immunohistochemistry; format: in vivo; details: PDMS pillars, 2 weeks
Description: Mouse Brain Implantation. C57BL/6J mice were allowed to acclimate for greater than one week prior to surgical manipulation. After the acclimation period, 24 hours prior to surgery, the mice were premedicated with 5 mg/kg meloxicam SC for analgesia. 30 minutes prior to surgery, the mice were given 30 mg/kg trimethoprim-sulfamethoxazole PO for antimicrobial prophylaxis. The mice were then anesthetized with 3% isoflurane with 1 L/min O2 in an induction chamber and then transferred to a nose cone with 1-3% inhaled isoflurane with 0.5 L/min O2 for maintenance anesthesia. Depth of anesthesia was monitored testing for no response to toe pinch throughout surgery. Immediately following induction, the mouse was placed on a warming pad and maintained on the warming pad throughout surgery. The fur on the mouse head was trimmed with an electric razor and topical anesthetic with 2.5% lidocaine/prilocaine cream was applied for several minutes. The mice were then given 5 mg/kg meloxicam SC and 0.1 mg/kg buprenorphine SC for analgesia. The trimmed mouse scalp was then scrubbed with 7.5% povidone-iodine solution. Sterile neoprene surgical gloves (Medichoice) and sterile autoclaved instruments were used to maintain sterile technique throughout surgery. […]

[1] = tested on: gonadal fat pads of C57BL/6 adult male mice, a pro-fibrotic mouse model; assay: 28-day implantation of functionalized PDMS disks on gonadal fat pads (IP space); gross fibrosis and histology; format: in vivo; details: 28 days
Description: PDMS disk/pillar preparation & functionalization. PDMS implants were made with SYLGARD™ 184 silicone elastomer by mixing the base and curing agent in a ratio of 10:1 and letting sit 24 hours at room temperature in either sheets or pillar molds. The PDMS sheets were punched with 4 mm biopsy punches to make disks, or the pillar were removed from their molds, and plasma cleaned under general atmospheric air on each side for 1 minute at high Rf, 700-800 torr. Samples were then functionalized by one of two methods: Method 1) for the methacryloyl modified Z2-Y12 and Z2-Y12 Analog, the PDMS disks were incubating in a solution of DMSO:ACN (Sigma) (60:40) overnight under nitrogen gas flow. For the methacryloyl modified Z1-Y15 (0.2M), methacryloyl Z1-Y15 was added to DMSO (0.3 w/v %) and heated to 80° C. Separately Milli-Q H2O was heated to 80° C. and added to the reaction dropwise for a final mixture of 1:4 DMSO:Milli-Q H2O. The mixture was left stirring under reduced heat 40-50° C. under high stirring conditions ([…]). PDMS sheets were added to this mixture and allowed to stir overnight under Nitrogen gas. Disks were submerged in 1×PBS and left to soak for 10 minutes. Samples were then washed 3× with 1×PBS after overnight functionalization. […] Functionalized disks were maintained at −80° C. until they were ready for implantation. […]

With `NCCOCCOCCOCCn1cc(CN2CCS(=O)(=O)CC2)nn1` [Z1] the “accumulation/migration of immune cells at the implant site (immunohistochemistry)” value (brain of mice) was “not observed”, the “fibrotic strands of cells at the implant site (histology)” value (brain of mice) was “absent” and the “adherent peripheral tissue on disks (FBR and fibrosis)” value ([1]; PDMS disks, gonadal fat pads) was “virtually no adherent peripheral tissue was found”. For the same compound, the “interfacial fibrotic layer on the implant surface (histology)” value ([1]; tissue around PDMS implants) was “prevented the development of an interfacial fibrotic layer”.
